#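 Five concentrations, 48 hours, 96-well plates. GI50: concentration for 50% inhibition of growth. TGI denotes the concentration required for complete inhibition of growth.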
# Experiments:
# Assay in all cases: DTP human tumour cell line panel, 48 h
# 786-0 renal = test system: 786-0 renal
# A498 renal = test system: A498 renal
# A549 NSCLC = test system: A549 NSCLC
# ACHN renal = test system: ACHN renal
# CAKI-1 renal = test system: CAKI-1 renal
# CCRF-CEM leukemia = test system: CCRF-CEM leukemia
# COLO 205 colon = test system: COLO 205 colon
# DU-145 prostate = test system: DU-145 prostate
# EKVX NSCLC = test system: EKVX NSCLC
# HCC-2998 colon = test system: HCC-2998 colon
# HCT-116 colon = test system: HCT-116 colon
# HCT-15 colon = test system: HCT-15 colon
# HL-60(TB) leukemia = test system: HL-60(TB) leukemia
# HOP-62 NSCLC = test system: HOP-62 NSCLC
# HOP-92 NSCLC = test system: HOP-92 NSCLC
# HS 578T breast = test system: HS 578T breast
# HT29 colon = test system: HT29 colon
# IGROV1 ovarian = test system: IGROV1 ovarian
# K-562 leukemia = test system: K-562 leukemia
# KM12 colon = test system: KM12 colon
# LOX IMVI melanoma = test system: LOX IMVI melanoma
# M14 melanoma = test system: M14 melanoma
# MALME-3M melanoma = test system: MALME-3M melanoma
# MCF7 breast = test system: MCF7 breast
# MDA-MB-231 breast = test system: MDA-MB-231 breast
# MDA-MB-435 = test system: MDA-MB-435
# MDA-N = test system: MDA-N
# MOLT-4 leukemia = test system: MOLT-4 leukemia
# NCI-H226 lung = test system: NCI-H226 lung
# NCI-H23 lung = test system: NCI-H23 lung
# NCI-H460 lung = test system: NCI-H460 lung
# NCI-H522 lung = test system: NCI-H522 lung
# NCI/ADR-RES ovarian = test system: NCI/ADR-RES ovarian
# OVCAR-3 ovarian = test system: OVCAR-3 ovarian
# OVCAR-4 ovarian = test system: OVCAR-4 ovarian
# OVCAR-5 ovarian = test system: OVCAR-5 ovarian
# OVCAR-8 ovarian = test system: OVCAR-8 ovarian
# PC-3 prostate = test system: PC-3 prostate
# RPMI-8226 leukemia = test system: RPMI-8226 leukemia
# RXF 393 renal = test system: RXF 393 renal
# SF-268 CNS = test system: SF-268 CNS
# SF-295 CNS = test system: SF-295 CNS
# SF-539 CNS = test system: SF-539 CNS
# SK-MEL-2 melanoma = test system: SK-MEL-2 melanoma
# SK-MEL-28 melanoma = test system: SK-MEL-28 melanoma
# SK-MEL-5 melanoma = test system: SK-MEL-5 melanoma
# SK-OV-3 ovarian = test system: SK-OV-3 ovarian
# SN12C renal = test system: SN12C renal
# SNB-19 CNS = test system: SNB-19 CNS
# SNB-75 CNS = test system: SNB-75 CNS
# SR leukemia = test system: SR leukemia
# SW-620 colon = test system: SW-620 colon
# T-47D breast = test system: T-47D breast
# TK-10 renal = test system: TK-10 renal
# U251 CNS = test system: U251 CNS
# UACC-257 melanoma = test system: UACC-257 melanoma
# UACC-62 melanoma = test system: UACC-62 melanoma
# UO-31 renal = test system: UO-31 renal
compound,measurement,setting,value
NS(=O)(=O)c1ccc(/C=C/c2ccc(O)cc2)cc1,TGI,786-0 renal,89.6 µM
same,TGI,A498 renal,> 100 µM
same,GI50,A549 NSCLC,13.9 µM
same,TGI,A549 NSCLC,55.4 µM
same,GI50,ACHN renal,2280 nM
same,TGI,ACHN renal,7.75 µM
same,GI50,CAKI-1 renal,5.59 µM
same,TGI,CAKI-1 renal,32.6 µM
same,GI50,CCRF-CEM leukemia,4.5 µM
same,TGI,CCRF-CEM leukemia,> 100 µM
same,TGI,COLO 205 colon,35.3 µM
same,TGI,DU-145 prostate,> 100 µM
same,TGI,EKVX NSCLC,69.8 µM
same,TGI,HCC-2998 colon,40.6 µM
same,TGI,HCT-116 colon,85.6 µM
same,GI50,HCT-15 colon,24.6 µM
same,TGI,HCT-15 colon,> 100 µM
same,GI50,HL-60(TB) leukemia,4.35 µM
same,TGI,HL-60(TB) leukemia,> 100 µM
same,TGI,HOP-62 NSCLC,82.9 µM
same,TGI,HOP-92 NSCLC,39.5 µM
same,GI50,HS 578T breast,28.9 µM
same,TGI,HS 578T breast,> 100 µM
same,GI50,HT29 colon,17.8 µM
same,TGI,HT29 colon,35.1 µM
same,GI50,IGROV1 ovarian,20.2 µM
same,TGI,IGROV1 ovarian,84.9 µM
same,GI50,K-562 leukemia,24.9 µM
same,TGI,K-562 leukemia,> 100 µM
same,GI50,KM12 colon,11.1 µM
same,TGI,KM12 colon,30 µM
same,GI50,LOX IMVI melanoma,19.1 µM
same,TGI,LOX IMVI melanoma,> 100 µM
same,TGI,M14 melanoma,> 100 µM
same,TGI,MALME-3M melanoma,78.1 µM
same,TGI,MCF7 breast,> 100 µM
same,TGI,MDA-MB-231 breast,60.7 µM
same,GI50,MDA-MB-435,20.3 µM
same,TGI,MDA-MB-435,> 100 µM
same,TGI,MDA-N,> 100 µM
same,GI50,MOLT-4 leukemia,22.6 µM
same,TGI,MOLT-4 leukemia,> 100 µM
same,GI50,NCI-H226 lung,11.1 µM
same,TGI,NCI-H226 lung,33.1 µM
same,GI50,NCI-H23 lung,16.9 µM
same,TGI,NCI-H23 lung,60.1 µM
same,TGI,NCI-H460 lung,> 100 µM
same,GI50,NCI-H522 lung,13.8 µM
same,TGI,NCI-H522 lung,50.2 µM
same,TGI,NCI/ADR-RES ovarian,> 100 µM
same,TGI,OVCAR-3 ovarian,54.5 µM
same,GI50,OVCAR-4 ovarian,36.9 µM
same,TGI,OVCAR-4 ovarian,> 100 µM
same,TGI,OVCAR-5 ovarian,> 100 µM
same,GI50,OVCAR-8 ovarian,4.81 µM
same,TGI,OVCAR-8 ovarian,31.9 µM
same,TGI,PC-3 prostate,97.7 µM
same,GI50,RPMI-8226 leukemia,7.09 µM
same,TGI,RPMI-8226 leukemia,39.3 µM
same,TGI,RXF 393 renal,> 100 µM
same,GI50,SF-268 CNS,31.5 µM
same,TGI,SF-268 CNS,> 100 µM
same,TGI,SF-295 CNS,65 µM
same,GI50,SF-539 CNS,7.4 µM
same,TGI,SF-539 CNS,37.7 µM
same,TGI,SK-MEL-2 melanoma,60.3 µM
same,TGI,SK-MEL-28 melanoma,78.2 µM
same,TGI,SK-MEL-5 melanoma,29 µM
same,TGI,SK-OV-3 ovarian,59.5 µM
same,TGI,SN12C renal,> 100 µM
same,TGI,SNB-19 CNS,> 100 µM
same,TGI,SNB-75 CNS,78.6 µM
same,GI50,SR leukemia,4.68 µM
same,TGI,SR leukemia,55.5 µM
same,TGI,SW-620 colon,> 100 µM
same,TGI,T-47D breast,71.6 µM
same,TGI,TK-10 renal,> 100 µM
same,GI50,U251 CNS,15 µM
same,TGI,U251 CNS,> 100 µM
same,TGI,UACC-257 melanoma,> 100 µM
same,GI50,UACC-62 melanoma,3.4 µM
same,TGI,UACC-62 melanoma,20.4 µM
same,TGI,UO-31 renal,36.2 µM
